# Test results from patent US8193369B2, “Benzimidazole cannabinoid agonists” (Janssen Pharmaceutica NV, priority 2007, dated 2012).
# Target: T1, human CB2 (hCB2) receptor (Homo sapiens, UniProt P34972)
# T1 construct: expressed in transfected cells; host or cells: CHO-K1
# Assay: Inhibition of forskolin-activated cAMP production upon activation of human CB2 receptor (HTRF)
# Assay type: cell-based
# Settings: CHO-K1 cells stably transfected with hCB2; 15 μM forskolin; pEC50=-log(EC50); relative to WIN55212-2
# Experimental: D. Pharmacological Examples D.1 Inhibition of cAMP in Response to Activation of the Human CB2 Receptors
# Functional activity of the test compounds was assessed by measuring their potency to inhibit forskolin-activated cAMP production upon activation of human CB2 (hCB2) receptor through homogenous time resolved fluorescence (HTRF) assays.
# CHO-K1 cells stably transfected with hCB2 were grown up to 80-90% confluence in T175 Falcon flasks in DMEM/NUT MIX F-12 culture medium complemented with 2% Solution A (5.10^6 IU/l penicillin G, 5 g/l streptomycin sulphate, 5.5 g/l pyruvate, 14.6 g/l L-glutamine, 1M NaOH) and 10% foetal calf serum. Before the experiments, medium was removed, cells were washed with PBS/EDTA (140 mM NaCl, 1 mM Na2-EDTA, 8 mM Na2HPO4.2H2O, 8.5 mM KH2PO4, 2.7 mM KCl, 21 mM glucose), resuspended in stimulation buffer (HBSS 1×, IBMX 1 mM, Hepes 5 mM, MgCl2 10 mM, BSA 0.1%, pH 7.4). Cells were diluted to a concentration of 10^6 cells/ml for hCB2 experiments. Assays were performed using the cAMP Dynamic HTRF kit (CIS bio international, France) according to the recommendations of the manufacturer.
# For CB2, each well of a 384 flat bottom black polystyrene assay plate (Costar) was filled with 10 μl stimulation buffer containing 15 μM forskolin and either test compound (in 3% DMSO), 3% DMSO or 10 μM Win55212-2 (in 3% DMSO). Then, 20 μl of the diluted hCB2-CHO-K1 cells was added (20,000 cells/well). After 30 minutes incubation in dark at room temperature, 10 μl cAMP-XL665 and 10 μl anti-cAMP cryptate (both at a final dilution of 1/100) was added to the cells.
# After equilibration of the reaction mixtures for 1 to 24 hours in dark at room temperature, fluorescence was measured at 665 nm and 620 nm using a Discovery microplate fluorescence counter (Perkin Elmer), and the signal ratio of 665 nm/620 nm was calculated. The signal ratios of the test compounds were expressed relative to the signal ratios of the DMSO control (maximal signal ratio, no inhibition of cAMP) and WIN55212-2 for hCB2, respectively (minimal signal ratio, maximal inhibition of cAMP). From the dose response curves generated for each test compound, the dose at which 50% of the maximal inhibition of cAMP level is observed (EC50, expressed in the Table as pEC50=−log (EC50) values) and the level of inhibition reached with 10 μM of the test compound compared to WIN55212-2 (for hCB2) was calculated.
# T1 sequence (P34972 whole entry): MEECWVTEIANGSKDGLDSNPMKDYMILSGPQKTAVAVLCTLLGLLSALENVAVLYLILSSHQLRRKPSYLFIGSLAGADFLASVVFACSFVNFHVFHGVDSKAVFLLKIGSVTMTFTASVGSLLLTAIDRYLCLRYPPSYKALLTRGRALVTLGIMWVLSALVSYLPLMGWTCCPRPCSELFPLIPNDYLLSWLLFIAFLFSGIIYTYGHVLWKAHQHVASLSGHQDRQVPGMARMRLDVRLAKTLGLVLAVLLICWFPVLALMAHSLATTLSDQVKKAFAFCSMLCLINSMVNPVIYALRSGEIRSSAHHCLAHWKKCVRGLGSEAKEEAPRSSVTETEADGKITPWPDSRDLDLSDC
Structure (SMILES),EC50 [nM],CB2 pEC50
CC(=O)N1CCC(Cn2c(C(C)(C)C)nc3cc(S(=O)(=O)Cc4ccccc4)ccc32)CC1 [Co. No. 73],2.34,
CCS(=O)(=O)c1ccc2c(c1)nc(C(C)(C)C)n2CC1CCN(C(C)=O)CC1 [compound 1],8.51,
CC(=O)N1CCC(Cn2c(C(C)(C)C)nc3cc(S(=O)(=O)CCCC(F)(F)F)ccc32)CC1 [compound 3],15.5,
CC(=O)N1CCC(Cn2c(C(C)(C)C)nc3cc(S(=O)(=O)CCCC#N)ccc32)CC1 [compound 10],21.9,
COc1ccc(CSc2ccc3c(c2)nc(C(C)(C)C)n3CC2CCN(C(C)=O)CC2)cc1 [compound 11],20.4,
COc1ccc(CS(=O)(=O)c2ccc3c(c2)nc(C(C)(C)C)n3CC2CCN(C(C)=O)CC2)cc1 [compound 12],158,
CC(=O)N1CCC(Cn2c(C(C)(C)C)nc3cc(SCCCO)ccc32)CC1 [compound 13],8.71,
CC(=O)N1CCC(Cn2c(C(C)(C)C)nc3cc(SCCC#N)ccc32)CC1 [compound 15],10,
CC(=O)N1CCC(Cn2c(C(C)(C)C)nc3cc(SCc4ccc(F)cc4)ccc32)CC1 [compound 17],0.794,
CC(=O)N1CCC(Cn2c(C(C)(C)C)nc3cc(Sc4ccc(C#N)cc4)ccc32)CC1 [compound 18],6.31,
CC(=O)N1CCC(Cn2c(C(C)(C)C)nc3cc(S(=O)(=O)CCCO)ccc32)CC1 [compound 19],,6.84
COCCS(=O)(=O)c1ccc2c(c1)nc(C(C)(C)C)n2CC1CCN(C(C)=O)CC1 [compound 20],,7.59
CC(C)(C)c1nc2cc(SCCCO)ccc2n1CC1CCN(C=O)CC1 [compound 21],5.37,
COCCSc1ccc2c(c1)nc(C(C)(C)C)n2CC1CCN(C=O)CC1 [compound 22],7.08,
CC(=O)N1CCC(Cn2c(C(C)(C)C)nc3cc(S(=O)(=O)c4ccc(C#N)cc4)ccc32)CC1 [compound 23],3.72,
CC(C)S(=O)(=O)c1ccc2c(c1)nc(C(C)(C)C)n2CC1CCS(=O)(=O)CC1 [compound 30],50.1,
CC(=O)N1CCC(Cn2c(C(C)(C)C)nc3cc(SC4CCCC4)ccc32)CC1 [compound 32],1.29,
CC(=O)N1CCC(Cn2c(C(C)(C)C)nc3cc(Sc4ccncc4)ccc32)CC1 [compound 33],4.47,
CC(=O)N1CCC(Cn2c(C(C)(C)C)nc3cc(S(=O)(=O)C4CCCC4)ccc32)CC1 [compound 35],,8.49
CC(C)(C)c1nc2cc(SCC3CC3)ccc2n1CC1CCN(C=O)CC1 [compound 37],1.32,
CC(=O)N1CCC(Cn2c(C(C)(C)C)nc3cc(S(=O)(=O)C(C)C#N)ccc32)CC1 (centres unmarked) [compound 39],7.08,

Structure (SMILES),EC50 [nM],CB2 pEC50
CC(=O)N1CCC(Cn2c(C(C)(C)C)nc3cc(SCC4CCC4)ccc32)CC1 [compound 41],1.17,
CC(=O)N1CCC(Cn2c(C(C)(C)C)nc3cc(S(=O)(=O)C(C)(C)C#N)ccc32)CC1 [compound 42],5.5,
CCS(=O)(=O)c1ccc2c(c1)nc(C(C)C)n2CC1CCN(C(C)=O)CC1 [compound 47],955,
CC(=O)N1CCC(Cn2c(C(C)(C)C)nc3cc(Sc4ccccn4)ccc32)CC1 [compound 50],7.76,
CCC(CC)Sc1ccc2c(c1)nc(C(C)(C)C)n2CC1CCN(C(C)=O)CC1 [compound 51],0.794,
CC(=O)N1CCC(Cn2c(C(C)(C)C)nc3cc(SCCc4ccc(F)cc4)ccc32)CC1 [compound 52],3.98,
CC(=O)N1CCC(Cn2c(C(C)(C)C)nc3cc(Sc4cccnc4)ccc32)CC1 [compound 54],2.29,
CC(=O)N1CCC(Cn2c(C(C)(C)C)nc3cc(S(=O)(=O)C(C)(C)c4ccccc4)ccc32)CC1 [compound 55],93.3,
CC(=O)N1CCC(Cn2c(C(C)(C)C)nc3cc(S(=O)(=O)CCc4ccc(F)cc4)ccc32)CC1 [compound 56],3.39,
CC(=O)N1CCC(Cn2c(C(C)(C)C)nc3cc(Sc4c(Cl)cccc4Cl)ccc32)CC1 [compound 57],1.58,
CC(=O)N1CCC(Cn2c(C(C)(C)C)nc3cc(Sc4ccc(F)cc4)ccc32)CC1 [compound 58],8.51,
CCC(CC)S(=O)(=O)c1ccc2c(c1)nc(C(C)(C)C)n2CC1CCN(C(C)=O)CC1 [compound 61],2.51,
CC(=O)N1CCC(Cn2c(C(C)(C)C)nc3cc(S(=O)(=O)c4cccnc4)ccc32)CC1 [compound 62],5.25,
CC(=O)N1CCC(Cn2c(C(C)(C)C)nc3cc(S(=O)(=O)c4ccc[n+]([O-])c4)ccc32)CC1 [compound 63],15.5,
CC(=O)N1CCC(Cn2c(C(C)(C)C)nc3cc(S(=O)(=O)C(C)C)ccc32)CC1 [compound 64],12.9,
CCCC(CCC)Sc1ccc2c(c1)nc(C(C)(C)C)n2CC1CCN(C(C)=O)CC1 [compound 65],1.74,
CC(=O)N1CCC(Cn2c(C(C)(C)C)nc3cc(Sc4cccs4)ccc32)CC1 [compound 66],2.24,
CC(=O)N1CCC(Cn2c(C(C)(C)C)nc3cc(S(=O)(=O)Cc4ccc([N+](=O)[O-])cc4)ccc32)CC1 [compound 69],5.89,
CC(=O)N1CCC(Cn2c(C(C)(C)C)nc3cc(Sc4ccccc4Cl)ccc32)CC1 [compound 70],0.0871,
CC(=O)N1CCC(Cn2c(C(C)(C)C)nc3cc(SCc4ccccc4)ccc32)CC1 [compound 72],12.9,
CC(=O)Nc1ccc(CS(=O)(=O)c2ccc3c(c2)nc(C(C)(C)C)n3CC2CCN(C(C)=O)CC2)cc1 [compound 79],5.89,

Structure (SMILES),EC50 [nM],CB2 pEC50
CC(=O)N1CCC(Cn2c(C(C)(C)C)nc3cc(S(=O)(=O)Cc4ccc(N(C)C(C)=O)cc4)ccc32)CC1 [compound 80],~46.8,
COCCCOc1cccc(S(=O)(=O)c2ccc3c(c2)nc(C(C)(C)C)n3CC2CCN(C(C)=O)CC2)c1 [compound 86],5.37,
CC(=O)N1CCC(Cn2c(C(C)(C)C)nc3cc(Sc4ccc(C(F)(F)F)cc4)ccc32)CC1 [compound 87],~10,
CC(=O)N1CCC(Cn2c(C(C)(C)C)nc3cc(Sc4cccc(Cl)c4)ccc32)CC1 [compound 89],~0.11,
CC(=O)N1CCC(Cn2c(C(C)(C)C)nc3cc(Sc4cccc(C(F)(F)F)c4)ccc32)CC1 [compound 91],~0.832,
CC(=O)N1CCC(Cn2c(C(C)(C)C)nc3cc(S(=O)(=O)c4cccc(C(F)(F)F)c4)ccc32)CC1 [compound 92],4.07,
CC(=O)N1CCC(Cn2c(C(C)(C)C)nc3cc(Sc4ccccc4C#N)ccc32)CC1 [compound 93],~0.24,
CC(=O)N1CCC(Cn2c(C(C)(C)C)nc3cc(S(=O)(=O)c4ccccc4C#N)ccc32)CC1 [compound 94],~3.31,
CC(=O)N1CCC(Cn2c(C(C)(C)C)nc3cc(Sc4cccc(OCCCC#N)c4)ccc32)CC1 [compound 95],~2.69,
CC(=O)N1CCC(Cn2c(C(C)(C)C)nc3cc(S(=O)(=O)c4cccc(OCCCC#N)c4)ccc32)CC1 [compound 96],3.55,
CC(=O)N1CCC(Cn2c(C(C)(C)C)nc3cc(Sc4cccc(N(C)C)c4)ccc32)CC1 [compound 97],4.79,
CC(=O)N1CCC(Cn2c(C(C)(C)C)nc3cc(S(=O)(=O)c4cccc(N(C)C)c4)ccc32)CC1 [compound 98],4.57,
CC(=O)N1CCC(Cn2c(C(C)(C)C)nc3cc(S(=O)(=O)c4cccc(OC(C)C)c4)ccc32)CC1 [compound 100],2.34,
COc1cccc(OC)c1Sc1ccc2c(c1)nc(C(C)(C)C)n2CC1CCN(C(C)=O)CC1 [compound 101],~0.513,
COc1cccc(OC)c1S(=O)(=O)c1ccc2c(c1)nc(C(C)(C)C)n2CC1CCN(C(C)=O)CC1 [compound 102],~3.47,
CC(=O)N1CCC(Cn2c(C(C)(C)C)nc3cc(S(=O)(=O)c4ccoc4)ccc32)CC1 [compound 103],~3.8,
CC(=O)N1CCC(Cn2c(C(C)(C)C)nc3cc(S(=O)(=O)c4ccc(OC(F)(F)F)cc4)ccc32)CC1 [compound 104],~23.4,
CC(=O)N1CCC(Cn2c(C(C)(C)C)nc3cc(S(=O)(=O)c4ccc(F)c(C#N)c4)ccc32)CC1 [compound 105],~1.29,
COc1ccc(S(=O)(=O)c2ccc3c(c2)nc(C(C)(C)C)n3CC2CCN(C(C)=O)CC2)c(OC)c1 [compound 106],~22.9,
CC(=O)N1CCC(Cn2c(C(C)(C)C)nc3cc(S(=O)(=O)c4ccc(C(F)(F)F)cc4Cl)ccc32)CC1 [compound 107],~7.41,
